Target: T1, RAS G12D protein (Homo sapiens, UniProt P01116, G12D)
T1 construct: host or cells: Aspc-1 (AsPC-1) cells
Assay: Protein degradation study (western blot) in Aspc-1 cells
Type: cell-based
Conditions: for DC50: half-maximum degradation concentration on G12D in Aspc-1 cells
Method: Aspc-1 (Cobioer, CBP60546) cells in exponential growth phase were inoculated on a 6-well cell culture plate (Corning, 3516) at density of 1E6/well; and cells in the plate were cultured in a 37° C. incubator containing 5%-carbon dioxide. The next day, test compounds were dissolved in DMSO (Sigma, RNBF5902) for the preparation of a 10-mM concentration stock solution. The stock solution was diluted with complete medium (RPMI-1640 supplemented with 10% fetal bovine serum, 1% penicillin-streptomycin), yielding working solutions of various concentrations. The plate, after the addition of compounds, was placed in a 5% carbon dioxide incubator, and incubated at 37° C. for 24 hours (final DMSO concentration was 0.1%). The plate was then removed from the incubator, and the cells were washed twice with precooled PBS (Gibco, 14190250), followed by addition of 80 μL RIPA (CST, 9806S) lysis buffer (containing protease inhibitor (Invitrogen™, AM2696)) to each well. The adherent cells were scraped off with a cell scraper, and the cell lysate was transferred to a 1.5 mL centrifuge tube followed with a 30-minute incubation on ice. The lysate was then clarified with centrifugation at 12000 rpm for 10 min at 4° C. The supernatant was transferred into a new 1.5 mL centrifuge tube, and protein concentration was measured with BCA protein detection kit (Thermo Fisher, 23225). G12D protein level was assessed by western blot. A mixture of cell lysate (40 μL) and loading buffer (10 μL, 5×SDS (Beyotime, P0015L)) was denatured in a water-bath at 95° C. for 10 min. The denatured protein sample, at 30 μg/well, was loaded into a corresponding well of a 4-20% Bis-Tris gel (Kingsley, M00656). Protein samples were initially electrophoresed at 80 V for 30 minutes, followed by 120 V for 40 minutes, until the bromophenol blue strip ran to an appropriate position. After electrophoresis, iBlot2 (Life Technologies, IB21001) was used to transfer the separated samples onto PVDF film. The PVDF membrane was washed with double-distilled water and then blocked in TBST (Thermo Scientific, 28360) buffer containing 5% non-fat milk, for 2 hours. Blocked membrane was rinsed with tris-buffered saline tween-2 (Thermo Scientific, 28360, TBST) three times, 10 minutes each. Membrane was then incubated with 1:1000 diluted RAS Gi2D primary antibody (CST, cat #14429S) overnight at 4° C. Membrane was rinsed in a way described previously followed by 1 hour incubation of secondary antibody at room temperature. After washing the film for three times with TBST, ECL color developing solution was applied, and image was captured with Biorad Chemi Doc gel imager. The band gray value was quantified (Image Lab), and protein degradation level was calculated according to the following formulas:
Level of RAS G12D protein expression=(RAS G12D−compound/β-Actin)−compound/(RAS G12D−DMSO/β-Actin−DMSO)
Level of degradation (%)=(1−Rate of RAS G12D protein expression)×100
Symbols of −, +, ++, +++, ++++, +++++ indicate that the degradation level of Ras protein induced by test compounds was 10% or less, 10 to 30%, 30 to 60%, 60 to 70%, 70 to 75%, and greater than 75%, respectively. “NT” indicates not tested.
“NT” indicates not tested.

[1] = ASPC1, 24 h, 0.005 μM compound, Aspc-1 cells, 24 hours, read-out: Rate of protein degradation (%)
[2] = ASPC1, 24 h, 0.05 μM compound, Aspc-1 cells, 24 hours, read-out: Rate of protein degradation (%)

T1 sequence (P01116 1-188 isoform P01116-2 G12D): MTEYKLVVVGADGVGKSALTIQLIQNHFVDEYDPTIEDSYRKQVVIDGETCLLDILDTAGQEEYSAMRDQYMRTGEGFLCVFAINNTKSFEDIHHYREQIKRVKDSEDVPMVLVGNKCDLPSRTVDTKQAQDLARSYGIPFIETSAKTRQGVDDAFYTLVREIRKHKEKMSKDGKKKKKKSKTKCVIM

Row | percent protein degradation at 0.005 µM [1] [%] | percent protein degradation at 0.05 µM [2] [%] | Compound | other results
1 | 10 to 30 | ≤ 10 | CCc1c(F)ccc2cc(O)cc(-c3c(Cl)cc4c(N5CCC[C@]6(CCO6)C5)nc(OCC5(CN6CCC7(CC6)CC(N6CCC(c8cc9c(cc8F)c(N8CCC(=O)NC8=O)nn9C)CC6)C7)CC5)nc4c3F)c12 (atropisomer, axis not shown) [Compound 239] | –
2 | 30 to 60 | 60 to 70 | CCc1c(F)ccc2cc(O)cc(-c3ncc4c(N5CCC[C@@](C)(O)C5)nc(OCC5(CN6CCC7(CC6)CC(N6CCC(c8ccc(NC9CCC(=O)NC9=O)cc8F)CC6)C7)CC5)nc4c3F)c12 (some centres unmarked) [Compound 197] | percent protein degradation at 0.001 µM (ASPC1, 24 h, 1 nM compound, Aspc-1 cells, 24 hours, read-out: Rate of protein degradation (%)): 10 to 30%
3 | 30 to 60 | 30 to 60 | C#Cc1c(F)ccc2cccc(-c3ncc4c(N5CCC[C@](C)(O)C5)nc(OCC5(CN6CCC7(CC6)CC(N6CCC(c8ccc9c%10c(cccc8%10)C(=O)N9C8CCC(=O)NC8=O)CC6)C7)CC5)nc4c3F)c12 (some centres unmarked) [Compound 198] | –
4 | ≤ 10 | ≤ 10 | CCc1c(F)ccc2cc(O)cc(-c3ncc4c(N5CCC[C@]6(CCO6)C5)nc(OCC5(CN6CCC7(CC6)CC(N6CCC(c8ccc(C(=O)NC9CCC(=O)NC9=O)c(F)c8)CC6)C7)CC5)nc4c3F)c12 (some centres unmarked) [Compound 209] | –
5 | 30 to 60 | 60 to 70 | CCc1c(F)ccc2cc(O)cc(-c3ncc4c(N5CCC[C@]6(CCO6)C5)nc(OCC5(CN6CCC7(CC(N8CCC(c9cc%10c(cc9F)c(N9CCC(=O)NC9=O)nn%10C)CC8)C7)C6)CC5)nc4c3F)c12 (some centres unmarked) [Compound 219] | –
6 | 30 to 60 | 30 to 60 | CCc1c(F)ccc2cc(O)cc(-c3ncc4c(N5CCC[C@]6(CCO6)C5)nc(OCC5(CN6CCC(C(=O)N7CCC(c8ccc9c(C%10CCC(=O)NC%10=O)nn(C)c9c8)CC7)CC6)CC5)nc4c3F)c12 (some centres unmarked) [Compound 220] | Dmax (ASPC1, G12D in Aspc-1 cells): 55%; DC50: 1 to 10 nM
7 | ≤ 10 | ≤ 10 | CCc1c(F)ccc2cc(O)cc(-c3ncc4c(N5CCC[C@]6(CCO6)C5)nc(OCC5(CN6CCC7(CC(c8cc9c(cc8F)c(N8CCC(=O)NC8=O)nn9C)C7)C6)CC5)nc4c3F)c12 (some centres unmarked) [Compound 222] | –
8 | 10 to 30 | 30 to 60 | CCc1c(F)ccc2cc(O)cc(-c3ncc4c(N5CCC[C@]6(CCO6)C5)nc(OCC5(CN6CCC(N7CCC(c8cc9c(cc8F)c(N8CCC(=O)NC8=O)nn9C)CC7)C6)CC5)nc4c3F)c12 (some centres unmarked) [Compound 226] | –
9 | ≤ 10 | 10 to 30 | CCc1c(F)ccc2cc(O)cc(-c3ncc4c(N5CCC[C@]6(CCO6)C5)nc(OCC5(CN6CCC7(CC6)CC(N6CCC(c8cnn(C9CCC(=O)NC9=O)c(=O)c8)CC6)C7)CC5)nc4c3F)c12 (some centres unmarked) [Compound 227] | –
10 | 10 to 30 | 30 to 60 | CCc1c(F)ccc2cc(O)cc(-c3ncc4c(N5CCC[C@]6(CCO6)C5)nc(OCC5(CN6CCC7(CC6)CC(N6CCC(c8ccc(NC9CCC(=O)NC9=O)nc8)CC6)C7)CC5)nc4c3F)c12 (some centres unmarked) [Compound 229] | –
11 | 10 to 30 | 30 to 60 | CCc1c(F)ccc2cc(O)cc(-c3ncc4c(N5CCC[C@]6(CCO6)C5)nc(OCC5(CN6CCC7(CC6)CC(N6Cc8cc9c(cc8C6)C(=O)N(C6CCC(=O)NC6=O)C9=O)C7)CC5)nc4c3F)c12 (some centres unmarked) [Compound 231] | –

Further lines, the molecule ahead of its results:

Row | Compound | percent protein degradation at 0.005 µM [1] [%] | percent protein degradation at 0.05 µM [2] [%] | other results
12 | CCc1c(F)ccc2cc(O)cc(-c3c(Cl)cc4c(N5CCC[C@]6(CCO6)C5)nc(OCC5(CN6CCC7(CC6)CC(N6CCC(c8cc9c(cc8F)c(N8CCC(=O)NC8=O)nn9C)CC6)C7)CC5)nc4c3F)c12 (atropisomer, axis not shown) [Compound 240] | – | – | Rate of protein degradation (%) (0.005 μM compound, Aspc-1 cells, 24 hours): + (10 to 30%); Rate of protein degradation (%) (0.05 μM compound, Aspc-1 cells, 24 hours): + (10 to 30%)
13 | CCc1c(F)ccc2cc(O)cc(-c3ncc4c(N5CCC[C@@](C)(O)C5)nc(OC5CCN(CC(=O)N6CCC7(CC6)CC(N6CCC(c8ccc9c(C%10CCC(=O)NC%10=O)nn(C)c9c8)CC6)C7)CC5)nc4c3F)c12 (some centres unmarked) [Compound 194] | – | – | DC50: > 1000 nM
14 | CCc1c(F)ccc2cc(O)cc(-c3ncc4c(N5CCC[C@@](C)(O)C5)nc(OCC5(CN6CCC7(CC6)CC(N6CC=C(c8ccc9c(c8)CN(C8CCC(=O)NC8=O)C9=O)CC6)C7)CC5)nc4c3F)c12 (some centres unmarked) [Compound 196] | – | – | DC50: 1 to 10 nM
15 | CCc1c(F)ccc2cccc(-c3ncc4c(N5CCC[C@](C)(O)C5)nc(OCC5(CN6CCC7(CC6)CC(N6CCC(c8ccc9c%10c(cccc8%10)C(=O)N9C8CCC(=O)NC8=O)CC6)C7)CC5)nc4c3F)c12 (some centres unmarked) [Compound 199] | 30 to 60 | 30 to 60 | –
16 | C#Cc1c(F)ccc2cc(O)cc(-c3ncc4c(N5CC=CCC5)nc(OCC5(CN6CCC7(CC6)CC(N6CCC(c8cc9c(cc8F)c(N8CCC(=O)NC8=O)nn9C)CC6)C7)CC5)nc4c3F)c12 [Compound 203] | 10 to 30 | – | –
17 | C#Cc1c(F)ccc2cc(O)cc(-c3ncc4c(N5CCC=CCC5)nc(OCC5(CN6CCC7(CC6)CC(N6CCC(c8cc9c(cc8F)c(N8CCC(=O)NC8=O)nn9C)CC6)C7)CC5)nc4c3F)c12 [Compound 206] | 10 to 30 | 10 to 30 | –
18 | CCc1c(F)ccc2cc(O)cc(-c3ncc4c(N5CCC[C@]6(CCO6)C5)nc(OCC5(CN6CCC(c7ccc8c(C9CCC(=O)NC9=O)nn(C)c8c7)CC6)CC5)nc4c3F)c12 (some centres unmarked) [Compound 212] | ≤ 10 | 10 to 30 | –
19 | CCc1c(F)ccc2cc(O)cc(-c3ncc4c(N5CCC[C@]6(CCO6)C5)nc(OCC5(CN6CCC(CN7CCC(c8ccc9c(C%10CCC(=O)NC%10=O)nn(C)c9c8)CC7)C6)CC5)nc4c3F)c12 (some centres unmarked) [Compound 215] | 10 to 30 | 30 to 60 | –
20 | CCc1c(F)ccc2cc(O)cc(-c3ncc4c(N5CCC[C@]6(CCO6)C5)nc(OCC5(CN6CCC(N7CCC(c8ccc9c(N%10CCC(=O)NC%10=O)nn(C)c9c8)CC7)CC6)CC5)nc4c3F)c12 [Compound 218] | 10 to 30 | 30 to 60 | –
21 | CCc1c(F)ccc2cc(O)cc(-c3ncc4c(N5CCC[C@]6(CCO6)C5)nc(OCC5(CN6CCC(C(=O)N7CCC(c8cc9c(cc8F)c(N8CCC(=O)NC8=O)nn9C)CC7)CC6)CC5)nc4c3F)c12 [Compound 224] | 10 to 30 | 10 to 30 | –
22 | CCc1c(F)ccc2cc(O)cc(-c3ncc4c(N5CCC[C@]6(CCO6)C5)nc(OCC5(CN6CCC(N7CCC(c8cc9c(cc8F)c(N8CCC(=O)NC8=O)nn9C)CC7)CC6)CC5)nc4c3F)c12 [Compound 225] | 30 to 60 | 30 to 60 | –
23 | CCc1c(F)ccc2cc(O)cc(-c3ncc4c(N5CCC[C@]6(CCO6)C5)nc(OCC5(CN6CCC7(CC6)CC(N6CCC(c8ccc(C9CCC(=O)NC9=O)cn8)CC6)C7)CC5)nc4c3F)c12 (some centres unmarked) [Compound 230] | ≤ 10 | ≤ 10 | –
24 | CCc1c(F)ccc2cc(O)cc(-c3ccc4c(N5CCC[C@]6(CCO6)C5)nc(OCC5(CN6CCC7(CC6)CC(N6CCC(c8cc9c(cc8F)c(N8CCC(=O)NC8=O)nn9C)CC6)C7)CC5)nc4c3F)c12 [Compound 232] | 10 to 30 | 30 to 60 | –
25 | CCc1c(F)ccc2cc(O)cc(-c3ncc4c(N5CCC[C@]6(CCO6)C5)nc(OCC5(CN6CCC7(CCC(N8Cc9cc%10c(cc9C8)C(=O)N(C8CCC(=O)NC8=O)C%10=O)CC7)CC6)CC5)nc4c3F)c12 (some centres unmarked) [Compound 233] | 10 to 30 | 30 to 60 | –

From patent US20240246963A1, “BIFUNCTIONAL COMPOUNDS AND PHARMACEUTICAL USES THEREOF” (RISEN (SUZHOU) PHARMA TECH CO., LTD., priority 2022, published 2024)
